Test results as given in PMC6814738, “Bacterial MgrB peptide activates chemoreceptor Fpr3 in mouse accessory olfactory system and drives avoidance behaviour” (Nature Communications, 2019).
Peptide text beside a SMILES is read from it. * marks the point of attachment. For = O=C*

Assays:
[1] = target: T1, mouse Fpr3 (Fpr-rs1) (Mus musculus, UniProt O08790); assay: Heterologous expression / high-throughput Ca2+ imaging agonist screen and sequence selectivity of Fpr3 (Fig. 1a, 2c-e, 2g, 2i); format: cell-based; conditions: for Ca2+ response, mean: mean of n = 3 experiments in triplicate (n = 5 for f-MKKFRW), Fpr3 + Gα16 HEK293T, Fluo-4/AM, buffer C1 pH 7.2, mock 0.059-0.060
T1 construct: expressed in transfected cells; host or cells: HEK293T (DSMZ # ACC-635), transient transfection with jetPEI
T1 sequence (O08790 1-351): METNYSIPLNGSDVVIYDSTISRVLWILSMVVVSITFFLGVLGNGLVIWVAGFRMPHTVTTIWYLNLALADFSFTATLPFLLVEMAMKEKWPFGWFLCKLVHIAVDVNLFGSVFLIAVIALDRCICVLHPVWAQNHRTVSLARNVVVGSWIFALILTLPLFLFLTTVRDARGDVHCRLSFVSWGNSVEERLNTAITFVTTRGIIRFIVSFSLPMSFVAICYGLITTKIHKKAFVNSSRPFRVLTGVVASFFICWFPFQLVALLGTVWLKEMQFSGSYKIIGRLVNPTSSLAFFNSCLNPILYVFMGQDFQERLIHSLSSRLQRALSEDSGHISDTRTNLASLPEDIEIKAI
Procedure: (§1) An Fpr3 gene subcloned from genomic DNA of C57BL/6J mice into pcDNA3.1 (Invitrogen) was used in heterologous experiments[21],[80]. HEK293T (DSMZ # ACC-635) cells were seeded at 20–30% confluence on poly-D-lysine-coated (10 µg/ml in PBS) black 96-well µCLEAR-Plates (Greiner Bio-One). Cells were transfected 24 h later using jetPEI™ (Polyplus-transfection SA) according to the manufacturer’s protocol for 96-well transfections. For Ca^2+ imaging experiments, 0.125 µg of DNA plasmid encoding Fpr3 were cotransfected with equal amounts of a plasmid encoding Gα16, a promiscuous G protein α-subunit. Ca^2+ signals to agonist stimulation were recorded 48 h post transfection using the Ca^2+ indicator dye Fluo-4/AM (Molecular Probes) and a fluorescence imaging plate reader (FLIPR) system (Molecular Devices). Cotransfection of a plasmid encoding Gα16 with an empty vector used to subclone Fpr3 gave no agonist-evoked Ca^2+ responses.
We used custom-made peptides with a length of 6–21 amino acids to screen for agonists. Sequences of fMet peptides were designed according to motifs present at the N-termini of 15,125 specific bacterial proteins as annotated in UniProt. Peptides were chemically synthesised, purified, and verified by mass spectroscopy (MALDI-TOF) by commercial suppliers. Purity of all peptides was >95%. Source, sequence and purity of each peptide are listed in Supplementary Data 1. Lyophilised peptides were routinely dissolved in the Ca^2+ imaging assay buffer C1 (130 mM NaCl, 10 mM HEPES, 5 mM KCl, 2 mM CaCl2, 5 mM glucose, pH 7.2) as 0.2–1 mM stock solutions and kept in small aliquots at −20 °C until use. […] The sequences of these peptides exist in proteins from the following bacterial strains[21]: Psychromonas ingrahamii that belongs to a marine ice water microbial community, Desulfotomaculum reducens that is found in deep freshwater lakes, and Pseudomonas grimontii, a plant pathogen. As mice are unlikely to encounter these strains in their natural habitat, these findings are probably not of biological relevance.

[2] = system: Fpr2; conditions: cited from earlier work
Procedure: (§2) We estimate the fraction of knobs responding to f-MKKFRW as ~0.15%, which is similar to the fraction of cells in the VNE that express Fpr3[30]. Strikingly, the sensitivity and sequence-selectivity profile of these responses was nearly identical to the results that we obtained for heterologously expressed Fpr3. The detection threshold of native VSNs for f-MKKFRW was ≤0.1 µM (Fig. 4f), virtually the same as for Fpr3-expres ...

[3] = system: Fpr1; conditions: cited from earlier work
Procedure: as §2

[4] = target: T1, mouse Fpr3 (Fpr-rs1); assay: Concentration-response Ca2+ imaging of Fpr3-transfected HEK293T cells (Fig. 2f, h, j); format: cell-based; conditions: Ca2+ responses of Fpr3-transfected HEK293T; Fluo-4/AM, FLIPR; buffer C1 pH 7.2; Fig. 2f, h, j
Procedure: as §1, with “Devices).” for “Devices). Cotransfection of a plasmid encoding Gα16 with an empty vector used to subclone Fpr3 gave no agonist-evoked Ca^2+ responses.”
We used custom-made peptides with a length of 6–21 amino acids to screen for agonists. Sequences of fMet peptides were designed according to motifs present at the N-termini of 15,125 specific bacterial proteins as annotated in UniProt. Peptides were chemically synthesised, purified, and verified by mass spectroscopy (MALDI-TOF) by commercial suppliers. […] Source, sequence and purity of each peptide are listed in Supplementary Data 1. Lyophilised peptides were routinely dissolved in the Ca^2+ imaging assay buffer C1 (130 mM NaCl, 10 mM HEPES, 5 mM KCl, 2 mM CaCl2, 5 mM glucose, pH 7.2) as 0.2–1 mM stock solutions and kept in small aliquots at −20 °C until use.

Row | Molecule | Ca2+ response, mean ([1]; 3 µM, FLIPR) | Ca2+ response, mean ([1]; 30 µM, FLIPR) | activation of Fpr2, in words [2] | activation of Fpr1, in words [3] | EC50 [4] [µM] | activation of Fpr3 in agonist screen, in words ([1]; 3 µM, Fpr3-transfected HEK293T, Gα16, Fluo-4/AM, FLIPR, Fig. 1a) | Fpr3 activation by sequence variants, in words ([1]; 30 µM (3 or 30 µM for elongated peptides), Fpr3-transfected HEK293T, Fig. 2c-e, i) | specific Ca2+ response of Fpr3 in agonist screen, in words ([1]; 3 or 30 µM, Fpr3-transfected HEK293T, panel of 41 peptides, Fig. 1a)
1 | f-MGFFIS [bacterial signal peptide fragment] | 0.055 ∆F/F | 0.048 ∆F/F | activates Fpr1 and Fpr2 | activates Fpr1 | – | – | – | –
2 | CSCC[C@H](NC=O)C(=O)N[C@@H](CCCCN)C(=O)N[C@@H](CCCCN)C(=O)N[C@@H](Cc1ccccc1)C(=O)N[C@@H](CCCNC(=N)N)C(=O)N[C@@H](Cc1c[nH]c2ccccc12)C(=O)O [f-MKKFRW] (For-MKKFRW-OH) | 0.110 ∆F/F | 0.423 ∆F/F | – | – | 7.7 | activated Fpr3-expressing HEK293T | Fpr3 recognises the core agonist f-MKKFRW | caused Fpr3 activation
